Data from patent US11224565B2, “N-acyldipeptide derivatives and their uses” (NeoStrata Company, Inc., priority 2011, dated 2022).
Peptide text beside a SMILES is read from it.

Tests used:
Type in all cases: in vivo, human
[1] = tested on: Deranged immune disorders and inflammation; assay: Summary of test results in volunteer subjects: deranged immune disorders and inflammation; settings: efficacy grade
Source text: (§1) In one embodiment, a composition for topical application to test its therapeutic effect was formulated by dissolving a bioactive dipeptide derivative of the present invention in a solution prepared from 40 parts water, 40 parts ethanol and 20 parts propylene glycol by volume (WEP442). In another embodiment, a composition was formulated by dissolving a bioactive dipeptide derivative of the present invention in a non-aqueous solution prepared from 80 parts ethanol and 20 parts propylene glycol by volume (EP82). In yet another embodiment, a composition was formulated first by dissolving a bioactive dipeptide derivative of the present invention in a solution prepared from 80 parts water and 20 parts propylene glycol by volume (WP82), and the solution thus prepared was mixed with an oil-in-water emulsion or cream. In another embodiment, the volunteer subject topically applied the test compositions containing N-acyldipeptide derivatives of the present invention on involved skin or lesions once or twice daily for several weeks or until the involved lesions completely cleared and clinically changed to normal skin. As a control study, the subject also topically applied a vehicle control composition on the involved skin or lesions twice daily for the same period. In yet another embodiment, the volunteer subject topically applied once or twice daily the test compositions containing N-acyldipeptide derivatives of the present invention on the skin site above arthritic joints or painful muscles to provide therapeutic effects for the systemic disorders via topical administration. Some test results are summarized as follows. DI: Deranged immune disorders and inflammation

Nerve disorders = assay: Summary of test results in volunteer subjects: nerve disorders; settings: efficacy grade
Source text: as §1, with “ND: Nerve” for “DI: Deranged immune”, “disorders” for “disorders and inflammation”

[2] = tested on: Aging related changes of skin, nail and hair; assay: Summary of test results in volunteer subjects: aging related changes; settings: efficacy grade
Source text: as §1, with “AG: Aging related changes of skin, nail” for “DI: Deranged immune disorders”, “hair” for “inflammation”

Disturbed keratinization = assay: Summary of test results in volunteer subjects: disturbed keratinization; settings: efficacy grade
Source text: as §1, with “DK: Disturbed keratinization” for “DI: Deranged immune disorders and inflammation”

[3] = tested on: age spots including lentigines and keratosis; assay: Topical treatment of age spots on face; settings: twice daily, after 4 weeks; 1% (w/v) N-Ac-L-Cys-L-Tyr-NH2 in WEP442 pH 6.4 left side, 0.4% (w/v) N-Ac-L-Cys-L-Cys-NH2 in WEP442 right side
Source text: A subject had multiple age spots including lentigines and keratosis on their face. Topical treatments with conventional medications including hydroquinone with or without glycolic acid had been unsuccessful. The subject topically applied twice daily to the left side of their face 1% (w/v) N—Ac-L-Cys-L-Tyr-NH2 in WEP442, pH 6.4 (Example 5), and to the right side of their face 0.4% (w/v) N—Ac-L-Cys-L-Cys-NH2 in WEP442 (Example 5) for several months. […] Continued topical applications of the formulations should improve or eradicate lentigines and keratosis of the face.

[4] = tested on: inflammation, dermatitis, or eczema lesions; assay: Topical application to chronic inflammation, dermatitis, eczema or allergic skin lesions, clinical evaluation
Source text: (§2) In another embodiment, the volunteer subject topically applied the test compositions containing N-acyldipeptide derivatives of the present invention on involved skin or lesions once or twice daily for several weeks or until the involved lesions completely cleared and clinically changed to normal skin. As a control study, the subject also topically applied a vehicle control composition on the involved skin or lesions twice daily for the same period.

forearm skin = assay: Skin thickness of forearm by micrometer calipers after topical application; settings: for increase in skin thickness of treated left forearm: 1% (w/v) in WEP442 topically twice daily, vehicle forearm no change
Protocol: In one of the studies related to skin changes associated with aging, skin thickness was measured by micrometer calipers as follows. The skin was grasped with a 2×6 cm metal hinge; the internal faces of which were coated with emery cloth to prevent slippage, and manually squeezed to threshold subject discomfort. Combined thickness of two whole-skin layers including thickness of the two hinge leaves was measured with micrometer calipers. Thickness of the two hinge leaves was subtracted to determine the actual thickness of two whole-skin layers. Triplicate measurements on treated sites were done and an average number was used for calculation of the skin thickness. In other studies, test sites of skin 17 mm in diameter were used, the circular sites were marked with permanent ink. Intervening control sites were also 17 mm in diameter. Thickness of skin of all sites was measured directly by means of an electronic digital caliper. In this instance the jaws of the caliper were opened to 17 mm, applied with pressure to the skin sites and then closed to firm tightness. Thickness of skin was then read off the screen of the calipers. Measurements of all sites were made in triplicates.

[5] = Systemic administration under the tongue, tolerability; settings: 1 mg powder under the tongue, twice daily for three days, person
Protocol: The subject took 1 mg N—Ac-L-Tyr-L-Tyr-OH powder under the tongue until it was dissolved completely. The same dose was taken twice daily for the next three days. […] Such systemic administration of the bioactive dipeptide derivative of the present invention is believed to have the potential of treating diseases, symptoms or syndromes associated with immune, tumors, cancers, nervous, vascular, musculoskeletal, cutaneous system, or other tissues and systems.

insect bites = assay: Topical application to insect bite lesions (itch, erythema, inflammation); settings: 10% (w/w) cream on insect bites of left arm
Protocol: A subject, having intensive itch and erythema on their left arm from insect bites, topically applied 10% (w/w) N—Ac-L-Leu-Gly-NH2 cream as formulated in Example 3 on the involved lesions.
A subject had multiple lesions of insect bites (mosquitoes) over the face and arms with itch and inflammatory lesions of more than 1 cm in size. For testing purposes, the subject divided the lesions into three groups: the first group was treated with vehicle control, the second and third groups were treated with active compositions. The subject topically applied twice daily 0.5% (w/v) N—Ac-L-Val-L-Ala-NH2 solution in WEP442, pH 5.9 on the lesions of the second group, and 0.5% (w/v) N—Ac-L-Tyr-L-Tyr-NH2 solution in WEP442, pH 6.7 (Example 5) on the lesions of the third group. […] The lesions in the second and third groups also started to improve over the next few days. At the end of three days, while there was no discernible change in the lesions treated with vehicle control in the first group, the lesions in the second and third groups had 90-100% improvement with nearly complete disappearance of inflammatory lesions.
A subject had multiple lesions of chigger bites (grass mites) over the legs with intensive itch and red inflammatory lesions. The subject topically applied twice daily 0.5% (w/v) N—Ac-L-Val-L-Ala-NH2 solution in WEP442, pH 6.7 (Example 5) on the lesions. […] The lesions on the legs had 100% improvement as judged by clinical evaluation.
as §2

[6] = tested on: arthritis of both knees with edema and pain; assay: Sublingual administration in arthritis of knees; settings: 1 mg sublingually, kept under the tongue 15 minutes; after a few hours
Protocol: A subject had severe arthritis of both knees with edema and pain for many years. The conventional therapy had provided only temporary relief of knee pain and edema. The subject took N—Ac-L-Pro-Gly-NH2 (1 mg) sublingually and kept the dipeptide under the tongue for 15 minutes before swallowing.

Row | Compound | DI [1] | ND (Nerve disorders) | AG [2] | DK (Disturbed keratinization) | age spot lesions of face [3] | further results
1 | CC(=O)N[C@@H](CS)C(=O)N[C@@H](CS)C(N)=O [N-Ac-L-Cys-L-Cys-NH2] (Ac-Cys-Cys-NH2) | 2+ (2+: 50% Efficacy) | 2+ (2+: 50% Efficacy) | 3+ (3+: 75% Efficacy) | 2+ (2+: 50% Efficacy) | started to improve noticeably | –
2 | CC(=O)N[C@@H](Cc1ccc(O)cc1)C(=O)N[C@@H](Cc1ccc(O)cc1)C(=O)O [N-Ac-L-Tyr-L-Tyr-OH] (Ac-Tyr-Tyr-OH) | 3+ (3+: 75% Efficacy) | 4+ (4+: 95-100% Efficacy) | 4+ (4+: 95-100% Efficacy) | 3+ (3+: 75% Efficacy) | – | itch after topical application ([4]; 0.4% (w/v) in WEP442 pH 3.7 twice daily, inflammatory dermatitis on both arms): stopped within a few minutes; improvement as judged by clinical evaluation ([4]; 0.4% (w/v) in WEP442 pH 3.7 twice daily, inflammatory dermatitis on both arms, end of one week): 95%; increase in skin thickness of treated left forearm (forearm skin; after 2 weeks): 16%; increase in skin thickness of treated left forearm (forearm skin; after 4 weeks): 17%; increase in skin thickness of treated left forearm (forearm skin; after one week): 16%; appearance of treated left forearm at end of treatment (forearm skin; 1-3% (w/v) in WEP442 topically twice daily for 1-6 weeks as in the example, vehicle forearm still loose, thin and wrinkled): more firm, smooth, plump, and less wrinkled when lifted; irritation or side reactions [5]: did not provoke any irritation or side reactions
3 | CC(=O)N[C@@H](CC(C)C)C(=O)NCC(N)=O [N-Ac-L-Leu-Gly-NH2] (Ac-Leu-Gly-NH2) | 4+ (4+: 95-100% Efficacy) | 4+ (4+: 95-100% Efficacy) | 3+ (3+: 75% Efficacy) | 3+ (3+: 75% Efficacy) | – | improvement as judged by clinical evaluation ([4]; 6% (w/w) oil-in-water emulsion twice daily, chronic eczema large body areas, end of 10 days): 95%; itch after topical application ([4]; 6% (w/w) oil-in-water emulsion twice daily, chronic eczema large body areas, person): stopped within a few minutes; improvement as judged by clinical evaluation ([4]; 7% (w/w) oil-in-water emulsion twice daily, chronic eczema, end of 10 days): 90-100%; itch after topical application ([4]; 7% (w/w) oil-in-water emulsion twice daily, chronic eczema, person): stopped within a few minutes; improvement as judged by clinical evaluation ([4]; 10% (w/w) cream twice daily, chronic eczema right leg, end of one week): 50%; itch after topical application ([4]; 10% (w/w) cream twice daily, chronic eczema right leg, person): stopped within a few minutes; itch after topical application (insect bites): stopped within a few minutes; time the pruritus did not return (insect bites): 6 h; erythema and inflammation (insect bites; after 12 hours): improved
4 | CC(=O)N[C@@H](CS)C(=O)N[C@@H](Cc1ccc(O)cc1)C(N)=O [N-Ac-L-Cys-L-Tyr-NH2] (Ac-Cys-Tyr-NH2) | 2+ (2+: 50% Efficacy) | 3+ (3+: 75% Efficacy) | 2+ (2+: 50% Efficacy) | 2+ (2+: 50% Efficacy) | started to improve noticeably | –
5 | CC(=O)N1CCC[C@H]1C(=O)NCC(N)=O [N-Ac-L-Pro-Gly-NH2] (Ac-Pro-Gly-NH2) | 3+ (3+: 75% Efficacy) | 4+ (4+: 95-100% Efficacy) | 2+ (2+: 50% Efficacy) | 2+ (2+: 50% Efficacy) | – | edema and pain of arthritic knees [6]: diminished substantially
